Measured values taken from patent US7169407B1, “Carbonyl stress-decreasing agent” (Kiyoshi Kurokawa, priority 1999, dated 2007).

How the values were obtained:
[1] = Carbonyl compound-trapping effect of biguanide agents in phosphate buffer (Example 1); settings: 3 mM biguanide agent, 0.1 mM carbonyl compounds each, 0.1M phosphate buffer pH7.4, 37° C., over incubation period; HPLC
[2] = as above; settings: 3 mM biguanide agent, 0.1 mM carbonyl compounds each, 0.1M phosphate buffer pH7.4, 37° C., over incubation period; HPLC; remark: listed apart in the source

SMILES	concentration of glyoxal [1]	concentration of methylglyoxal [2]
CCCCNC(=N)NC(=N)N [buformin, butyl biguanide]	markedly decreased	markedly decreased
N=C(N)NC(=N)NCCc1ccccc1 [phenformin, phenethyl biguanide]	markedly decreased	markedly decreased
